Test [1] concerns the target T1, neurokinin-1 (NK-1) receptor (Homo sapiens, UniProt P25103).
T1 construct: endogenously expresses the neurokinin-1 (NK-1) receptor; endogenous in cells; host or cells: U373 human glioblastoma-astrocytoma cells (membranes)
Kind of test: NK-1 Binding assay ([125I] Substance P competition, U373 cell membranes). Conditions: Bolton Hunter labeled [125I] Substance P, 30 min at 20° C. How it is done: NK-1 Binding assay. U373 cells, a human glioblastoma-astrocytoma cell line that endogenously expresses the neurokinin-1 (NK-1) receptor, were grown in a monolayer culture at 37° C. in 5% CO2 and fed with Minimum Essential Medium (MEM) supplemented with 10% fetal bovine serum. Membranes were prepared as follows: Cells were washed twice with ice-cold phosphate-buffered saline (pH 7.4) and then incubated for 5–10 minutes with ice-cold 10 mM Tris buffer (pH 7.4) containing 5 mM EDTA. Cells were removed from plates, homogenized, and centrifuged at 32,000×g for 20 minutes. The resulting supernatant was discarded, and the pellet resuspended by homogenization in 50 mM Tris buffer (pH 7.4) containing 1 mM EDTA and centrifuged at 32,000×g for 20 minutes. The resulting supernatant was discarded, and the pellet resuspended by homogenization in NK-1 binding assay buffer (50 mM Tris-HCL (pH 7.4), 3 mM MnCl2, 200 μg/ml BSA, 5 μg/ml chymostatin, 40 μg/ml bacitracin and 4 μg/ml leupeptin).
On the day of an experiment the membrane preparation was thawed, homogenized and diluted with NK-1 binding assay buffer to the appropriate concentration. Competition binding assays were performed in 96 well plate format by incubating membranes (5–10 μg/well) with Bolton Hunter labeled [^125I] Substance P, at a concentration of […], and concentrations of drugs ranging from 10000 to 0.01 nM. Samples were incubated for 30 min at 20° C. then filtered through GF/B glass fiber filters (pretreated with 1% polyethyleneimine and 0.3% Triton X-100) using a Brandel cell harvester. The filters were then washed with 10 ml ice cold 50 mM Tris-HCL (pH 7.4) containing 3 mM MgCl2. Non-specific was defined in the presence of 2 μM L-733,060 (a non-peptide NK-1 antagonist). The amount of radioligand bound in the presence and absence of competitor was analyzed by plotting (−)log drug concentration versus the amount of radioligand specifically bound. The midpoint of the displacement curve (IC50, nM), signifies the potency. Ki values can be calculated using the method of Cheng and Prusoff (Cheng and Prusoff, Biochemical Pharmacology, Vol 22, pp. 3099–3108, Pergamon Press (1973)).

Test [2] has as its target T2, human serotonin transporters (Homo sapiens, UniProt P31645).
T2 construct: expressed in transfected cells
Briefly: Serotonin transporter binding assay ([3H]-citalopram competition, HEK-hSERT cell membranes). Conditions: 1 nM [3H]-citalopram, 1 hr at 25° C., read-out: SERT IC50. As to the method:
Serotonin transporter binding assay. HEK-293 cells that stably express human serotonin transporters (HEK-hSERT cells) were grown at 37° C. in 5% CO2 as a monolayer in medium consisting of EMEM supplemented with 10% fetal bovine serum and G418 sulfate (500 μg/ml). To prepare membranes for radioligand binding experiments, cells were rinsed twice with phosphate-buffered saline (138 mM NaCl, 4.1 mM KCl, 5.1 mM Na2PO4, 1.5 mM KH2PO4, 11.1 mM glucose, pH 7.4). Cells were transferred from plates to polypropylene tubes (16×100 mm), centrifuged at 1,200×g for 5 min and were frozen at −80° C. until assay. Following centrifugation, pellets were resuspended by homogenization in buffer consisting of 50 mM Tris (pH 7.7 at 25° C.), 120 mM NaCl and 5 mM KCl and then centrifuged at 32,000×g for 10 min. Following centrifugation, supernatants were discarded and pellets were resuspended in buffer consisting of 50 mM Tris (pH 7.4 at 25° C.), 150 mM NaCl and 5 mM KCl. Membrane homogenates (200 μl/plate) were incubated with 1 nM [^3H]-citalopram (specific activity=85 Ci/mmol) and increasing concentrations of test compounds for 1 hr at 25° C. in a total volume of 250 μl. The assay buffer consisted of 50 mM Tris (pH 7.4 at 25° C.), 120 mM NaCl and 5 mM KCl (pH 7.4 with conc. HCl). Plates were incubated for 1 hr at 25° C., then filtered through 0.5% PEI treated Whatman GF/B filters using a Brandel cell harvester. Filters were washed three times with 3 ml of ice-cold tris wash buffer. Non-specific binding was defined with 10 μM fluoxetine. Amount of radioligand bound in the presence and absence of competitor was analyzed by plotting (−)log drug concentration versus the amount of radioligand specifically bound. The midpoint of the displacement curve (IC50, nM), signifies the potency. Ki values can be calculated using the method of Cheng and Prusoff (Cheng and Prusoff, Biochemical Pharmacology, Vol 22, pp. 3099–3108, Pergamon Press (1973)).

T2 sequence (P31645 whole entry): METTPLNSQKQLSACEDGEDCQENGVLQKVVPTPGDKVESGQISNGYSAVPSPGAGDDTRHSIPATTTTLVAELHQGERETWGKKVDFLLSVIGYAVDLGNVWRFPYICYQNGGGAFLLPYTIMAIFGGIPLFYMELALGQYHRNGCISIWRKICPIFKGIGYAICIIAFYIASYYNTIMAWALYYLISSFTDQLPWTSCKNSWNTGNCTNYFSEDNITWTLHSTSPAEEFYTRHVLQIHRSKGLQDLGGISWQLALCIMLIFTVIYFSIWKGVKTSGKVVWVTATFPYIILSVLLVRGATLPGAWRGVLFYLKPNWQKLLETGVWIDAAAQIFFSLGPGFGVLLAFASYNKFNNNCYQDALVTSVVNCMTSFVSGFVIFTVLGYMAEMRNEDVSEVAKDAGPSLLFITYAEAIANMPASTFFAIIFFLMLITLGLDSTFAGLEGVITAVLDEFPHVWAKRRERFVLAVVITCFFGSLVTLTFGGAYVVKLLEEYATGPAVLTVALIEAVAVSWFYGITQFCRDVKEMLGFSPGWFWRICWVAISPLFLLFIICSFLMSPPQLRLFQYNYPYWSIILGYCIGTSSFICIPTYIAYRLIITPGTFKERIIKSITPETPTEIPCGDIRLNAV
T1 sequence (P25103 whole entry): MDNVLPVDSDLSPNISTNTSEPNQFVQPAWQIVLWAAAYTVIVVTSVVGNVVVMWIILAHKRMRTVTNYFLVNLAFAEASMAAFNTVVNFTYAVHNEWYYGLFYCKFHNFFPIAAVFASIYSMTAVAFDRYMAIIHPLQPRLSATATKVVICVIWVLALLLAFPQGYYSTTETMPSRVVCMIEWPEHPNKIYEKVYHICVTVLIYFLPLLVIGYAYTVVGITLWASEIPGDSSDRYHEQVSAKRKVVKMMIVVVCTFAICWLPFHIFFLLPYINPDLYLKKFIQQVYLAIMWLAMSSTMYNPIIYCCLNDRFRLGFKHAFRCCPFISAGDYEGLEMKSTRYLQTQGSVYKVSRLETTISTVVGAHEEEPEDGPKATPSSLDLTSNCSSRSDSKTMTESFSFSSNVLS

By IC50 is commonly meant the concentration needed to halve the response being measured. In the case of `NCCC(O)(COCc1cc(F)cc(C(F)(F)F)c1)c1ccccc1` (stereo not shown) [Example 51, 1-(3-fluoro-5-(trifluoromethyl)benzyloxy)-4-amino-2-phenylbutan-2-ol], the IC50 in test [1] and in test [2] was 1 to 100 nM each time.

As for `NCCC(O)(COCc1ccccc1Br)c1ccccc1` (stereo not shown) [Example 52, 1-(2-bromobenzyloxy)-4-amino-2-phenylbutan-2-ol], the concentration for half-maximal inhibition (IC50) in test [1] was greater than 300 nM; in test [2], 1 to 100 nM.

For `Cc1cc(C)cc(COCC(O)(CCN)c2ccccc2)c1` (stereo not shown) [Example 53, 1-(3,5-dimethylbenzyloxy)-4-amino-2-phenylbutan-2-ol], the 50% inhibitory concentration (IC50) in test [1] and in test [2] was 1 to 100 nM each time.

Consider `NCCC(O)(COCc1ccccc1C(F)(F)F)c1ccccc1` (stereo not shown) [Example 54, 1-(2-(trifluoromethyl)benzyloxy)-4-amino-2-phenylbutan-2-ol], for which the values for the concentration for half-maximal inhibition (IC50) in test [1] and in test [2] were greater than 300 nM and 1 to 100 nM, respectively.

In the case of `NCCC(O)(COCc1cccc(C(F)(F)F)c1)c1ccccc1` (stereo not shown) [Example 55, 1-(3-(trifluoromethyl)benzyloxy)-4-amino-2-phenylbutan-2-ol], the concentration for half-maximal inhibition (IC50) in test [1] and in test [2] was 100 to 300 nM throughout.

With `NCCC(O)(COCc1ccc(C(F)(F)F)cc1)c1ccccc1` (stereo not shown) [Example 56, 1-(4-(trifluoromethyl)benzyloxy)-4-amino-2-phenylbutan-2-ol], the concentration for half-maximal inhibition (IC50) in test [1] is greater than 300 nM; in test [2], 100 to 300 nM.

Consider `NCCC(O)(COCc1ccccc1F)c1ccccc1` (stereo not shown) [Example 57, 1-(2-fluorobenzyloxy)-4-amino-2-phenylbutan-2-ol], for which the IC50 in test [1] and in test [2] was greater than 300 nM in each case.

For `NCCC(O)(COCc1cccc(F)c1)c1ccccc1` (stereo not shown) [Example 58, 1-(3-fluorobenzyloxy)-4-amino-2-phenylbutan-2-ol], the IC50 is greater than 300 nM in test [1] and 100 to 300 nM in test [2].

Take `NCCC(O)(COCc1ccc(F)cc1)c1ccccc1` (stereo not shown) [Example 59, 1-(4-fluorobenzyloxy)-4-amino-2-phenylbutan-2-ol]: the concentration for half-maximal inhibition (IC50) was greater than 300 nM in test [1] and 100 to 300 nM in test [2].

As for `Cc1cccc(COCC(O)(CCN)c2ccccc2)c1` (stereo not shown) [Example 60, 1-(3-methylbenzyloxy)-4-amino-2-phenylbutan-2-ol], the values for the concentration for half-maximal inhibition (IC50) in test [1] and in test [2] were greater than 300 nM and 1 to 100 nM, respectively.

On to `NCCC(O)(COCc1cc(Cl)cc(Cl)c1)c1ccccc1` (stereo not shown) [Example 61, 1-(3,5-dichlorobenzyloxy)-4-amino-2-phenylbutan-2-ol], for which the IC50 in test [1] and in test [2] was 1 to 100 nM throughout.

Take `COc1ccccc1COCC(O)(CCN)c1ccccc1` (stereo not shown) [Example 62, 1-(2-methoxybenzyloxy)-4-amino-2-phenylbutan-2-ol]: the figures for the concentration for half-maximal inhibition (IC50) in test [1] and in test [2] were greater than 300 nM and 1 to 100 nM, respectively.

As to `COc1cccc(COCC(O)(CCN)c2ccccc2)c1` (stereo not shown) [Example 63, 1-(3-methoxybenzyloxy)-4-amino-2-phenylbutan-2-ol], the IC50 in test [1] is greater than 300 nM; in test [2], 1 to 100 nM.

On to `NCCC(O)(COCc1cc(F)cc(F)c1)c1ccccc1` (stereo not shown) [Example 64, 1-(3,5-difluorobenzyloxy)-4-amino-2-phenylbutan-2-ol], for which the half-inhibitory concentration (IC50) was in the range of 100 to 300 nM in test [1] and 1 to 100 nM in test [2].

As for `NCCC(O)(COCc1cccc(Cl)c1)c1ccccc1` (stereo not shown) [Example 65, 1-(3-chlorobenzyloxy)-4-amino-2-phenylbutan-2-ol], the concentration for half-maximal inhibition (IC50) in test [1] is greater than 300 nM; in test [2], 1 to 100 nM.

For the molecule `NCCC(O)(COCc1ccc(Br)cc1)c1ccccc1` (stereo not shown) [Example 66, 1-(4-bromobenzyloxy)-4-amino-2-phenylbutan-2-ol], the half-maximal inhibitory concentration (IC50) in test [1] is greater than 300 nM; in test [2], 100 to 300 nM.

With `Cc1ccccc1COCC(O)(CCN)c1ccccc1` (stereo not shown) [Example 67, 1-(2-methylbenzyloxy)-4-amino-2-phenylbutan-2-ol], the 50% inhibitory concentration (IC50) in test [1] was greater than 300 nM; in test [2], 100 to 300 nM.

Turning to `NCCC(O)(COCc1cc(Br)cc(Br)c1)c1ccccc1` (stereo not shown) [Example 68, 1-(3,5-dibromobenzyloxy)-4-amino-2-phenylbutan-2-ol], the IC50 in test [1] and in test [2] was 1 to 100 nM in each case.

Take `NCCC(O)(COCc1cccc(OC(F)(F)F)c1)c1ccccc1` (stereo not shown) [Example 69, 1-(3-(trifluoromethoxy)benzyloxy)-4-amino-2-phenylbutan-2-ol]: the figures for the 50% inhibitory concentration (IC50) in test [1] and in test [2] were greater than 300 nM and 1 to 100 nM, respectively.

As to `NCCC(O)(COCc1ccc(Cl)cc1)c1ccccc1` (stereo not shown) [Example 70, 1-(4-chlorobenzyloxy)-4-amino-2-phenylbutan-2-ol], the IC50 is greater than 300 nM in test [1] and 1 to 100 nM in test [2].

As for `NCCC(COCc1cc(C(F)(F)F)cc(C(F)(F)F)c1)c1ccccc1` (stereo not shown) [Example 71, 1-(3,5-bis(trifluoromethyl)benzyloxy)-4-amino-2-phenylbutane], the values for the IC50 in test [1] and in test [2] were 1 to 100 nM and 100 to 300 nM, respectively.

As for `CNCCC(COCc1cc(C(F)(F)F)cc(C(F)(F)F)c1)c1ccccc1` (stereo not shown) [Example 72, 1-(3,5-bis(trifluoromethyl)benzyloxy)-4-methylamino-2-phenylbutane], the IC50 in test [1] and in test [2] was 1 to 100 nM in each case.

For `CN(C)CCC(COCc1cc(C(F)(F)F)cc(C(F)(F)F)c1)c1ccccc1` (stereo not shown) [Example 73, 1-(3,5-bis(trifluoromethyl)benzyloxy)-4-dimethylamino-2-phenylbutane], the 50% inhibitory concentration (IC50) in test [1] and in test [2] was 1 to 100 nM each time.

As for `CC(CCN)(COCc1cc(C(F)(F)F)cc(C(F)(F)F)c1)c1ccccc1` (stereo not shown) [Example 74, 1-(3,5-bis(trifluoromethyl)benzyloxy)-4-amino-2-methyl-2-phenylbutane], the IC50 in test [1] and in test [2] was 1 to 100 nM in each case.

With `CNCCC(C)(COCc1cc(C(F)(F)F)cc(C(F)(F)F)c1)c1ccccc1` (stereo not shown) [Example 75, 1-(3,5-bis(trifluoromethyl)benzyloxy)-4-methylamino-2-methyl-2-phenylbutane], the 50% inhibitory concentration (IC50) in test [1] is 1 to 100 nM; in test [2], 100 to 300 nM.

As to `CN(C)CCC(C)(COCc1cc(C(F)(F)F)cc(C(F)(F)F)c1)c1ccccc1` (stereo not shown) [Example 76, 1-(3,5-bis(trifluoromethyl)benzyloxy)-4-dimethylamino-2-methyl-2-phenylbutane], the IC50 in test [1] lay within 100 to 300 nM; in test [2], 1 to 100 nM.

With `CC(CN)(COCc1cc(C(F)(F)F)cc(C(F)(F)F)c1)c1ccccc1` (stereo not shown) [Example 77, 1-(3,5-bis(trifluoromethyl)benzyloxy)-3-amino-2-methyl-2-phenylpropane], the IC50 in test [1] and in test [2] was 100 to 300 nM throughout.

Consider `CNCC(C)(COCc1cc(C(F)(F)F)cc(C(F)(F)F)c1)c1ccccc1` (stereo not shown) [Example 78, 1-(3,5-bis(trifluoromethyl)benzyloxy)-3-methylamino-2-methyl-2-phenylpropane], for which the IC50 in test [1] and in test [2] was 100 to 300 nM in each case.

As for `CN(C)CC(C)(COCc1cc(C(F)(F)F)cc(C(F)(F)F)c1)c1ccccc1` (stereo not shown) [Example 79, 1-(3,5-bis(trifluoromethyl)benzyloxy)-3-dimethylamino-2-methyl-2-phenylpropane], the concentration for half-maximal inhibition (IC50) in test [1] and in test [2] was 1 to 100 nM throughout.

The record behind these values is patent US7179926B2, “Aryloxyalkylamine NK-1/SSRI inhibitors” (Bristol-Myers Squibb Company, priority 2004, dated 2007).
